# Laboratory results published in PubChem BioAssay AID1845209 (Molecular Pharmacology Branch, DTP, NCI, 2023).
# “And” between values parts separate entries of the source, which are not always exact repeats. Identical values can stand only once.
# Tested on: NCI-H211 tumor spheroids, viability percent test/control
# Assay: Anticancer human tumor NCI-H211 cell line growth inhibition;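 further: spheroids exposed to agents for seven days before readout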
# Conditions: spheroids with HUVEC and MSC; for viability, T/C: stronger effect = lower value
# Procedure, shortened: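 Complex spheroids of malignant cells with endothelial cells and mesenchymal stem cells; agents alone or combined, from near clinical Cmax (or 10 microM if unknown) down in half-log steps, 0.25% DMSO final.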
# [1] = curve of first compound, second compound 0.003 µM
# [2] = curve of first compound, second compound 0.00949 µM
# [3] = curve of first compound, second compound 0.03 µM
# [4] = curve of first compound, second compound 0.0949 µM
# [5] = curve of first compound, second compound 0.3 µM
smiles,measurement,setting,value
Cc1sc2c(c1C)C(c1ccc(Cl)cc1)=NC(CC(=O)Nc1ccc(O)cc1)c1nnc(C)n1-2 (configuration not stated) + CC[C@@]1(O)C(=O)OCc2c1cc1n(c2=O)Cc2cc3c(CN(C)C)c(O)ccc3nc2-1,IC50,[1],< 0.00949 µM
same,IC50,[2],< 0.00949 µM
same,IC50,[3],< 0.00949 µM
same,IC50,[4],< 0.00949 µM
same,IC50,[5],< 0.00949 µM
same,"viability, T/C","second compound 0.003 µM, first compound 0.00949 µM",30.2%
same,"viability, T/C","second compound 0.003 µM, first compound 0.03 µM",3.07%
same,"viability, T/C","second compound 0.003 µM, first compound 0.0949 µM",0.77%
same,"viability, T/C","second compound 0.003 µM, first compound 0.3 µM",0.53%
same,"viability, T/C","second compound 0.003 µM, first compound 0.949 µM",0.42%
same,"viability, T/C","second compound 0.003 µM, first compound 3 µM",0.44%
same,"viability, T/C","second compound 0.00949 µM, first compound 0.00949 µM",3.11%
same,"viability, T/C","second compound 0.00949 µM, first compound 0.03 µM",0.89%
same,"viability, T/C","second compound 0.00949 µM, first compound 0.0949 µM",0.89%
same,"viability, T/C","second compound 0.00949 µM, first compound 0.3 µM",0.57%
same,"viability, T/C","second compound 0.00949 µM, first compound 0.949 µM",0.46%
same,"viability, T/C","second compound 0.00949 µM, first compound 3 µM",0.57%
same,"viability, T/C","second compound 0.03 µM, first compound 0.00949 µM",0.97%
same,"viability, T/C","second compound 0.03 µM, first compound 0.03 µM",0.72%
same,"viability, T/C","second compound 0.03 µM, first compound 0.0949 µM",0.81%
same,"viability, T/C","second compound 0.03 µM, first compound 0.3 µM",0.54%
same,"viability, T/C","second compound 0.03 µM, first compound 0.949 µM",0.57%
same,"viability, T/C","second compound 0.03 µM, first compound 3 µM",0.55%
same,"viability, T/C","second compound 0.0949 µM, first compound 0.00949 µM",0.76%
same,"viability, T/C","second compound 0.0949 µM, first compound 0.03 µM",0.8%
same,"viability, T/C","second compound 0.0949 µM, first compound 0.0949 µM",0.73%
same,"viability, T/C","second compound 0.0949 µM, first compound 0.3 µM",0.79%
same,"viability, T/C","second compound 0.0949 µM, first compound 0.949 µM",0.59%
same,"viability, T/C","second compound 0.0949 µM, first compound 3 µM",0.6%
same,"viability, T/C","second compound 0.3 µM, first compound 0.00949 µM",0.94%
same,"viability, T/C","second compound 0.3 µM, first compound 0.03 µM",0.9%
same,"viability, T/C","second compound 0.3 µM, first compound 0.0949 µM",0.83%
same,"viability, T/C","second compound 0.3 µM, first compound 0.3 µM",0.85%
same,"viability, T/C","second compound 0.3 µM, first compound 0.949 µM",0.54%
same,"viability, T/C","second compound 0.3 µM, first compound 3 µM",0.51%
Cc1cc(C)c(CNC(=O)c2cc(-c3ccc(CN4CCOCC4)cc3)cc3c2cnn3C2CCCC2)c(=O)[nH]1 + CC[C@@]1(O)C(=O)OCc2c1cc1n(c2=O)Cc2cc3c(CN(C)C)c(O)ccc3nc2-1,IC50,[1],1.89 µM
same,IC50,[2],< 0.0316 µM
same,IC50,[3],< 0.0316 µM
same,IC50,[4],< 0.0316 µM
same,IC50,[5],< 0.0316 µM
same,"viability, T/C","second compound 0.003 µM, first compound 0.0316 µM",83.3%
same,"viability, T/C","second compound 0.003 µM, first compound 0.1 µM",78.6%
same,"viability, T/C","second compound 0.003 µM, first compound 0.316 µM",74.2%
same,"viability, T/C","second compound 0.003 µM, first compound 1 µM",58.4%
same,"viability, T/C","second compound 0.003 µM, first compound 3.16 µM",42.8%
same,"viability, T/C","second compound 0.003 µM, first compound 10 µM",24.6%
same,"viability, T/C","second compound 0.00949 µM, first compound 0.0316 µM",10.6%
same,"viability, T/C","second compound 0.00949 µM, first compound 0.1 µM",8.26%
same,"viability, T/C","second compound 0.00949 µM, first compound 0.316 µM",5.43%
same,"viability, T/C","second compound 0.00949 µM, first compound 1 µM",3.96%
same,"viability, T/C","second compound 0.00949 µM, first compound 3.16 µM",2.11%
same,"viability, T/C","second compound 0.00949 µM, first compound 10 µM",1.31%
same,"viability, T/C","second compound 0.03 µM, first compound 0.0316 µM",0.94%
same,"viability, T/C","second compound 0.03 µM, first compound 0.1 µM",1.14%
same,"viability, T/C","second compound 0.03 µM, first compound 0.316 µM",1.13%
same,"viability, T/C","second compound 0.03 µM, first compound 1 µM",0.98%
same,"viability, T/C","second compound 0.03 µM, first compound 3.16 µM",1.02%
same,"viability, T/C","second compound 0.03 µM, first compound 10 µM",0.92%
same,"viability, T/C","second compound 0.0949 µM, first compound 0.0316 µM",1.01%
same,"viability, T/C","second compound 0.0949 µM, first compound 0.1 µM",1.06%
same,"viability, T/C","second compound 0.0949 µM, first compound 0.316 µM",0.94%
same,"viability, T/C","second compound 0.0949 µM, first compound 1 µM",1.17%
same,"viability, T/C","second compound 0.0949 µM, first compound 3.16 µM",1.46%
same,"viability, T/C","second compound 0.0949 µM, first compound 10 µM",1.47%
same,"viability, T/C","second compound 0.3 µM, first compound 0.0316 µM",1.21%
same,"viability, T/C","second compound 0.3 µM, first compound 0.1 µM",1.42%
same,"viability, T/C","second compound 0.3 µM, first compound 0.316 µM",1.39%
same,"viability, T/C","second compound 0.3 µM, first compound 1 µM",1.4%
same,"viability, T/C","second compound 0.3 µM, first compound 3.16 µM",1.35%
same,"viability, T/C","second compound 0.3 µM, first compound 10 µM",1.52%
O=C(c1cc(Cc2n[nH]c(=O)c3ccccc23)ccc1F)N1CCN(C(=O)C2CC2)CC1,"viability, T/C",compound 0.0949 µM,36% and 73% and 92.9%
same,"viability, T/C",compound 0.3 µM,30.1% and 42.2% and 63.5%
same,"viability, T/C",compound 0.949 µM,14.9% and 5.83% and 9.79%
same,"viability, T/C",compound 3 µM,9.02% and 1.22% and 0.8%
same,"viability, T/C",compound 9.49 µM,8.37% and 1.02% and 0.69%
same,"viability, T/C",compound 30 µM,7.89% and 0.93% and 0.73%
same,IC50,curve of compound,< 0.0949 µM and 0.224 µM and 0.401 µM
